# According to ChEMBL document CHEMBL1201862, “PubChem BioAssay data set” (2004):
#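 Compound exposure: 48 hours, 5 concentrations, 96-well plates. Here, GI50 denotes the concentration required for 50% inhibition of growth.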 Active and inactive are the calls of the source. Cut-off read from the data, not from the text of the source: active = GI50 up to about 1.1 µM and inactive = higher.
# How the values were obtained:
# Assay in all cases: growth of human tumour cells (NCI), 48 h
# A498 = tested on: A498
# OVCAR-8 = tested on: OVCAR-8
# UACC-62 = tested on: UACC-62
# MOLT-4 = tested on: MOLT-4
# COLO 205 = tested on: COLO 205
# MDA-N = tested on: MDA-N
# M14 = tested on: M14
# OVCAR-5 = tested on: OVCAR-5
# DU-145 = tested on: DU-145
# SNB-75 = tested on: SNB-75
# MDA-MB-231 = tested on: MDA-MB-231
# HCT-15 = tested on: HCT-15
# SF-295 = tested on: SF-295
# PC-3 = tested on: PC-3
# SK-MEL-28 = tested on: SK-MEL-28
# HCT-116 = tested on: HCT-116
# NCI-H460 = tested on: NCI-H460
# CCRF-CEM = tested on: CCRF-CEM
# T47D = tested on: T47D
# K562 = tested on: K562
# SF-268 = tested on: SF-268
# SF-539 = tested on: SF-539
# OVCAR-4 = tested on: OVCAR-4
# OVCAR-3 = tested on: OVCAR-3
# EKVX = tested on: EKVX
# NCI-H522 = tested on: NCI-H522
# ACHN = tested on: ACHN
# UACC-257 = tested on: UACC-257
# NCI-H23 = tested on: NCI-H23
# NCI/ADR-RES = tested on: NCI/ADR-RES
# SK-MEL-2 = tested on: SK-MEL-2
# KM12 = tested on: KM12
# HCC 2998 = tested on: HCC 2998
# SK-MEL-5 = tested on: SK-MEL-5
# RXF 393 = tested on: RXF 393
# A549 = tested on: A549
# SN12C = tested on: SN12C
# HOP-62 = tested on: HOP-62
# LOX IMVI = tested on: LOX IMVI
# NCI-H226 = tested on: NCI-H226
# Malme-3M = tested on: Malme-3M
# MCF7 = tested on: MCF7
# SW-620 = tested on: SW-620
# 786-0 = tested on: 786-0
# RPMI-8226 = tested on: RPMI-8226
# SR = tested on: SR
# U-251 = tested on: U-251
# HT-29 = tested on: HT-29
# TK-10 = tested on: TK-10
# HL-60 = tested on: HL-60
# Hs-578T = tested on: Hs-578T
# UO-31 = tested on: UO-31
# IGROV-1 = tested on: IGROV-1
# SNB-19 = tested on: SNB-19
# CAKI-1 = tested on: CAKI-1
# SK-OV-3 = tested on: SK-OV-3
structure (smiles),measurement,setting,value
CCCCCCCCNC(=S)N/C=C1\C(=O)Oc2ccccc2C1=O,GI50,A498,16 µM (inactive)
same,GI50,OVCAR-8,19.5 µM (inactive)
same,GI50,UACC-62,6.85 µM (inactive)
same,GI50,MOLT-4,12.4 µM (inactive)
same,GI50,COLO 205,15 µM (inactive)
same,GI50,MDA-N,18.1 µM (inactive)
same,GI50,M14,19.3 µM (inactive)
same,GI50,OVCAR-5,12.6 µM (inactive)
same,GI50,DU-145,19.2 µM (inactive)
same,GI50,SNB-75,14.2 µM (inactive)
same,GI50,MDA-MB-231,15.9 µM (inactive)
same,GI50,HCT-15,12.2 µM
same,GI50,SF-295,14.1 µM (inactive)
same,GI50,PC-3,14.4 µM (inactive)
same,GI50,SK-MEL-28,16.1 µM (inactive)
same,GI50,HCT-116,15.6 µM (inactive)
same,GI50,NCI-H460,14.4 µM (inactive)
same,GI50,CCRF-CEM,11.1 µM (inactive)
same,GI50,T47D,65.8 µM (inactive)
same,GI50,K562,16.3 µM (inactive)
same,GI50,SF-268,10 µM (inactive)
same,GI50,SF-539,17.6 µM (inactive)
same,GI50,OVCAR-4,13.2 µM (inactive)
same,GI50,OVCAR-3,12.6 µM (inactive)
same,GI50,EKVX,28.2 µM (inactive)
same,GI50,NCI-H522,7.19 µM (inactive)
same,GI50,ACHN,14.8 µM (inactive)
same,GI50,UACC-257,19.1 µM (inactive)
same,GI50,NCI-H23,21.1 µM (inactive)
same,GI50,NCI/ADR-RES,19 µM (inactive)
same,GI50,SK-MEL-2,22.5 µM (inactive)
same,GI50,KM12,13.6 µM (inactive)
same,GI50,HCC 2998,11.4 µM (inactive)
same,GI50,SK-MEL-5,15.3 µM (inactive)
same,GI50,RXF 393,16 µM (inactive)
same,GI50,A549,17.2 µM (inactive)
same,GI50,SN12C,19.8 µM (inactive)
same,GI50,HOP-62,13.5 µM (inactive)
same,GI50,LOX IMVI,7.05 µM (inactive)
same,GI50,NCI-H226,23.8 µM (inactive)
Cc1ncc([N+](=O)[O-])n1CCn1ccnc1[N+](=O)[O-],GI50,Malme-3M,72.1 µM (inactive)
same,GI50,A498,61.9 µM (inactive)
same,GI50,OVCAR-8,34.8 µM (inactive)
same,GI50,MCF7,> 100 µM (inactive)
same,GI50,SW-620,74.6 µM (inactive)
same,GI50,MOLT-4,> 100 µM (inactive)
same,GI50,786-0,> 100 µM (inactive)
same,GI50,OVCAR-5,> 100 µM (inactive)
same,GI50,SNB-75,> 100 µM (inactive)
same,GI50,HCT-15,> 100 µM
same,GI50,SF-295,> 100 µM (inactive)
same,GI50,PC-3,80.9 µM (inactive)
same,GI50,SK-MEL-28,> 100 µM (inactive)
same,GI50,HCT-116,> 100 µM (inactive)
same,GI50,RPMI-8226,> 100 µM (inactive)
same,GI50,NCI-H460,> 100 µM (inactive)
same,GI50,SR,> 100 µM (inactive)
same,GI50,CCRF-CEM,> 100 µM (inactive)
same,GI50,K562,> 100 µM (inactive)
same,GI50,SF-268,> 100 µM (inactive)
same,GI50,SF-539,> 100 µM (inactive)
same,GI50,OVCAR-3,> 100 µM (inactive)
same,GI50,U-251,> 100 µM (inactive)
same,GI50,EKVX,35.2 µM (inactive)
same,GI50,NCI-H522,> 100 µM (inactive)
same,GI50,ACHN,> 100 µM (inactive)
same,GI50,UACC-257,> 100 µM (inactive)
same,GI50,HT-29,> 100 µM (inactive)
same,GI50,NCI-H23,> 100 µM (inactive)
same,GI50,SK-MEL-2,58.6 µM (inactive)
same,GI50,TK-10,15.7 µM (inactive)
same,GI50,KM12,> 100 µM (inactive)
same,GI50,HCC 2998,> 100 µM (inactive)
same,GI50,SK-MEL-5,38.3 µM (inactive)
same,GI50,A549,54.2 µM (inactive)
same,GI50,SN12C,61.7 µM (inactive)
same,GI50,HOP-62,> 100 µM (inactive)
same,GI50,NCI-H226,> 100 µM (inactive)
same,GI50,HL-60,> 100 µM (inactive)
same,GI50,Hs-578T,> 100 µM (inactive)
COC(C)(C)[C@@H]1CCCN1C1=C(C)C(=O)OC1,GI50,Malme-3M,> 100 µM (inactive)
same,GI50,UO-31,> 100 µM (inactive)
same,GI50,MCF7,> 100 µM (inactive)
same,GI50,UACC-62,> 100 µM (inactive)
same,GI50,MOLT-4,> 100 µM (inactive)
same,GI50,COLO 205,> 100 µM (inactive)
same,GI50,MDA-N,> 100 µM (inactive)
same,GI50,786-0,> 100 µM (inactive)
same,GI50,OVCAR-5,> 100 µM (inactive)
same,GI50,DU-145,> 100 µM (inactive)
same,GI50,SNB-75,> 10 µM (inactive)
same,GI50,MDA-MB-231,> 100 µM (inactive)
same,GI50,HCT-15,> 100 µM
same,GI50,SF-295,> 100 µM (inactive)
same,GI50,PC-3,> 100 µM (inactive)
same,GI50,HCT-116,> 100 µM (inactive)
same,GI50,RPMI-8226,> 100 µM (inactive)
same,GI50,NCI-H460,> 100 µM (inactive)
same,GI50,SR,> 100 µM (inactive)
same,GI50,CCRF-CEM,> 100 µM (inactive)
same,GI50,T47D,> 100 µM (inactive)
same,GI50,K562,> 100 µM (inactive)
same,GI50,SF-268,> 100 µM (inactive)
same,GI50,SF-539,> 100 µM (inactive)
same,GI50,IGROV-1,> 100 µM (inactive)
same,GI50,U-251,> 100 µM (inactive)
same,GI50,SNB-19,> 100 µM (inactive)
same,GI50,ACHN,> 100 µM (inactive)
same,GI50,NCI-H23,> 100 µM (inactive)
same,GI50,NCI/ADR-RES,> 100 µM (inactive)
same,GI50,SK-MEL-2,> 100 µM (inactive)
same,GI50,HCC 2998,> 100 µM (inactive)
same,GI50,SK-MEL-5,> 100 µM (inactive)
same,GI50,RXF 393,> 100 µM (inactive)
same,GI50,CAKI-1,> 100 µM (inactive)
same,GI50,SN12C,> 100 µM (inactive)
same,GI50,HOP-62,> 100 µM (inactive)
same,GI50,LOX IMVI,> 100 µM (inactive)
same,GI50,SK-OV-3,> 100 µM (inactive)
same,GI50,HL-60,> 100 µM (inactive)
same,GI50,Hs-578T,> 100 µM (inactive)
CC(=O)OCC1OC(O[C@@H]2C[C@H]3C(C)(C)[C@H](OC(C)=O)CC[C@]3(C)[C@H]3CC[C@@H]4[C@]5(CC[C@@]4(C)[C@@]32C)O[C@@H]([C@H](O)C(C)(C)O)C[C@@H]5C)C(O)C(O)C1O (some centres undefined),GI50,U-251,6.05 µM (inactive)
same,GI50,RXF 393,4.4 µM (inactive)
same,GI50,CAKI-1,3.23 µM (inactive)
